{"source": "paper PMC9127750", "about": "“Structure-based design of CDC42 effector interaction inhibitors for the treatment of cancer” (Cell reports, 2022)", "tested_on": "WM3248 melanoma cells, 486 antibodies", "assay": "Reverse phase protein arrays (RPPA)", "assay_type": "cell-based, Human", "description": "Pellets were snap frozen in liquid nitrogen and shipped to MD Anderson Cancer Center core RPPA facility for RPPA analysis (Table S5). Three biological replicates for each sample were generated.\nNomenclatures on the RPPA heatmaps: name_of_antibody.species_of_antibody.status_of_antibody. V - antibody validated; C - validation of antibody in progress; Q - antibody nonspecific; E – under evaluation; antibodies raised in M - mouse, G - goat, R - rabbit, or T - rat.", "note": "Several values for one entry are separate records, joined by “and”; a condition that tells them apart may be missing. Equal values may be shown once.", "data": [{"compound": "CN(C)c1cccc(Nc2cc(-c3ccccc3)nc(C3CCNCC3)n2)c1", "note": "[ARN22089, N1,N1-dimethyl-N3-(6-phenyl-2-(piperidin-4-yl)pyrimidin-4-yl)benzene-1,3-diamine]", "values": [{"measurement": "RPPA Gab2.R.V", "setting": "10 uM, single samples", "value": "0.930 and 0.844"}, {"measurement": "RPPA Gli1.R.C", "setting": "10 uM, single samples", "value": "0.975 and 0.972"}, {"measurement": "RPPA Gli3.R.C", "setting": "10 uM, single samples", "value": "0.999 and 0.965 and 0.950"}, {"measurement": "RPPA Glucocorticoid.Receptor.R.V", "setting": "10 uM, single samples", "value": "1.129 and 1.132 and 0.984"}, {"measurement": "RPPA Glutamate.D1.2.R.V", "setting": "10 uM, single samples", "value": "1.103 and 0.990"}, {"measurement": "RPPA Glutaminase.R.C", "setting": "10 uM, single samples", "value": "0.915 and 0.958 and 0.933"}, {"measurement": "RPPA Granzyme.B.R.V", "setting": "10 uM, single samples", "value": "0.958 and 0.982 and 0.983"}, {"measurement": "RPPA Grp75.R.C", "setting": "10 uM, single samples", "value": "1.161 and 1.138 and 0.943"}, {"measurement": "RPPA Gys.R.V", "setting": "10 uM, single samples", "value": "0.976 and 0.935 and 1.023"}, {"measurement": "RPPA Gys_pS641.R.V", "setting": "10 uM, single samples", "value": "0.940 and 1.033 and 1.049"}, {"measurement": "RPPA H2AX_pS139.R.C", "setting": "10 uM, single samples", "value": "1.009 and 0.918"}, {"measurement": "RPPA H2AX_pS140.M.C", "setting": "10 uM, single samples", "value": "1.079 and 1.061"}, {"measurement": "RPPA HER2.M.V", "setting": "10 uM, single samples", "value": 1.048}, {"measurement": "RPPA HER2_pY1248.R.V", "setting": "10 uM, single samples", "value": "0.857 and 0.890 and 0.990"}, {"measurement": "RPPA HER3.R.V", "setting": "10 uM, single samples", "value": "1.151 and 0.962 and 0.842"}, {"measurement": "RPPA HER3_pY1289.R.C", "setting": "10 uM, single samples", "value": "0.893 and 0.994"}, {"measurement": "RPPA HES1.R.V", "setting": "10 uM, single samples", "value": "0.925 and 1.199 and 0.845"}, {"measurement": "RPPA Heregulin.R.V", "setting": "10 uM, single samples", "value": "0.811 and 0.959 and 0.936"}, {"measurement": "RPPA eEF2K.R.V", "setting": "10 uM, single samples", "value": 1.065}, {"measurement": "RPPA eIF4E.R.V", "setting": "10 uM, single samples", "value": "1.415 and 0.768 and 0.752"}, {"measurement": "RPPA eIF4E_pS209.R.V", "setting": "10 uM, single samples", "value": "0.931 and 1.049 and 1.085"}, {"measurement": "RPPA eIF4G.R.C", "setting": "10 uM, single samples", "value": "1.057 and 0.870 and 0.859"}, {"measurement": "RPPA MYH11.R.C Average", "setting": "20 uM", "value": 1.101}, {"measurement": "RPPA Myosin.IIa.R.C Average", "setting": "20 uM", "value": 0.941}, {"measurement": "RPPA Myosin.IIa_pS1943.R.V Average", "setting": "20 uM", "value": 0.973}, {"measurement": "RPPA Myt1.R.C Average", "setting": "20 uM", "value": 1.012}, {"measurement": "RPPA N.Cadherin.R.V Average", "setting": "20 uM", "value": 1.035}, {"measurement": "RPPA N.Ras.M.V Average", "setting": "20 uM", "value": 0.928}, {"measurement": "RPPA NAPSIN.A.R.C Average", "setting": "20 uM", "value": 1.046}, {"measurement": "RPPA NDRG1_pT346.R.V Average", "setting": "20 uM", "value": 0.991}, {"measurement": "RPPA NDUFB4.R.V Average", "setting": "20 uM", "value": 1.026}, {"measurement": "RPPA NRF2.R.C Average", "setting": "20 uM", "value": 0.936}, {"measurement": "RPPA Notch1.cleaved.R.V Average", "setting": "20 uM", "value": 0.890}, {"measurement": "RPPA Oct.4.R.C Average", "setting": "20 uM", "value": 1.121}, {"measurement": "RPPA P.Cadherin.R.C Average", "setting": "20 uM", "value": 1.190}, {"measurement": "RPPA PAICS.R.C Average", "setting": "20 uM", "value": 0.891}, {"measurement": "RPPA PAK1.R.V Average", "setting": "20 uM", "value": 0.919}, {"measurement": "RPPA PAK_pS474_S602_S560.R.V Average", "setting": "20 uM", "value": 1.203}, {"measurement": "RPPA PAK_pT423_T402.R.C Average", "setting": "20 uM", "value": 1.013}, {"measurement": "RPPA PAR.R.C Average", "setting": "20 uM", "value": 1.051}, {"measurement": "RPPA PARG.R.C Average", "setting": "20 uM", "value": 1.310}, {"measurement": "RPPA PARP.R.V Average", "setting": "20 uM", "value": 0.981}, {"measurement": "RPPA PAX6.R.V Average", "setting": "20 uM", "value": 1.013}, {"measurement": "RPPA PAX8.R.C Average", "setting": "20 uM", "value": 0.970}, {"measurement": "RPPA PCNA.M.C Average", "setting": "20 uM", "value": 0.864}, {"measurement": "RPPA PD.L1.R.C Average", "setting": "20 uM", "value": 0.983}, {"measurement": "RPPA PDH.M.V Average", "setting": "20 uM", "value": 0.994}, {"measurement": "RPPA PDHA1.R.V Average", "setting": "20 uM", "value": 1.030}, {"measurement": "RPPA PDHK1.R.C Average", "setting": "20 uM", "value": 0.963}, {"measurement": "RPPA PDK1.R.V Average", "setting": "20 uM", "value": 1.096}, {"measurement": "RPPA PDK1_pS241.R.V Average", "setting": "20 uM", "value": 0.972}, {"measurement": "RPPA PEA.15.R.V Average", "setting": "20 uM", "value": 0.952}, {"measurement": "RPPA PEA.15_pS116.R.V Average", "setting": "20 uM", "value": 1.019}, {"measurement": "RPPA PERK.R.V Average", "setting": "20 uM", "value": 0.988}, {"measurement": "RPPA PGM1.R.V Average", "setting": "20 uM", "value": 0.940}, {"measurement": "RPPA PHGDH.R.C Average", "setting": "20 uM", "value": 0.998}, {"measurement": "RPPA PHLPP.R.V Average", "setting": "20 uM", "value": 1.124}, {"measurement": "RPPA PI3K.p85.R.C Average", "setting": "20 uM", "value": 0.900}, {"measurement": "RPPA PI3K.p110.a.R.C Average", "setting": "20 uM", "value": 0.931}, {"measurement": "RPPA PKA.a.R.V Average", "setting": "20 uM", "value": 0.928}, {"measurement": "RPPA PKC.a.b.II_pT638_T641.R.V Average", "setting": "20 uM", "value": 0.926}, {"measurement": "RPPA PKC.b.II_pS660.R.V Average", "setting": "20 uM", "value": 1.079}, {"measurement": "RPPA PKCa.R.V Average", "setting": "20 uM", "value": 1.559}, {"measurement": "RPPA PKM2.R.C Average", "setting": "20 uM", "value": 0.899}, {"measurement": "RPPA PLC.gamma1_pS1248.R.V Average", "setting": "20 uM", "value": 0.895}, {"measurement": "RPPA PLC.gamma2_pY759.R.V Average", "setting": "20 uM", "value": 0.983}, {"measurement": "RPPA PLK1.R.C Average", "setting": "20 uM", "value": 0.920}, {"measurement": "RPPA PMS2.R.V Average", "setting": "20 uM", "value": 0.986}, {"measurement": "RPPA PR.R.V Average", "setting": "20 uM", "value": 0.956}, {"measurement": "RPPA PRAS40.M.C Average", "setting": "20 uM", "value": 1.227}, {"measurement": "RPPA PRAS40_pT246.R.V Average", "setting": "20 uM", "value": 1.102}, {"measurement": "RPPA PRC1_pT481.R.C Average", "setting": "20 uM", "value": 1.084}, {"measurement": "RPPA Patched.R.C Average", "setting": "20 uM", "value": 1.079}, {"measurement": "RPPA Paxillin.R.C Average", "setting": "20 uM", "value": 0.827}, {"measurement": "RPPA Pdcd4.R.C Average", "setting": "20 uM", "value": 0.990}, {"measurement": "RPPA Porin.M.V Average", "setting": "20 uM", "value": 1.051}, {"measurement": "RPPA p21.R.C Average", "setting": "20 uM", "value": 0.828}, {"measurement": "RPPA p27.Kip1.R.C Average", "setting": "20 uM", "value": 1.157}, {"measurement": "RPPA p27_pT157.R.C Average", "setting": "20 uM", "value": 1.214}, {"measurement": "RPPA p27_pT198.R.V Average", "setting": "20 uM", "value": 1.156}, {"measurement": "RPPA p38.MAPK.R.V Average", "setting": "20 uM", "value": 0.981}]}]}
